Data on 1 molecule can be found in patent publication US20240141440A1, “METHODS FOR DETECTING ONCOGENIC KRAS MUTATIONS” (Duke University, priority 2022, published 2024).

Holding throughout (assay type): in vivo, A/J mice
In one series the test system is Kras Q61L. Description: Droplet digital PCR of Kras Q61L in lungs of mice after urethane exposure. Particulars: 4 weeks post urethane exposure. The protocol:
(§1) Urethane treatment. 6-8-week-old male and female A/J mice (JAX Stock #000646) were intraperitoneally injected daily for three days with either urethane (Sigma U2500) dissolved in PBS (1 g·kg^−1) or the vehicle PBS alone. Mice were humanely euthanized 1, 2, 3, or 4 weeks after the last injection and the lung, liver, and pancreas collected for the extraction of genomic DNA. All mouse care and experiments were performed in accordance with protocols approved by the IACUC of Duke University.
Droplet digital PCR (ddPCR). ddPCR was performed using the QX200 AutoDG Droplet Digital PCR System (Bio-Rad) following the manufacturer's protocol in a 22 μl ddPCR reaction containing 11 μl of 2×ddPCR SuperMix for probes (no dUTP) (Bio-Rad), 66 ng template DNA, 450 nM forward and reverse primers, and 250 nM FAM- and HEX-labelled probes. The primer and probe oligonucleotides were synthesized (IDT) based on sequences previously described^76 with minor modifications. The sequences for the primers are: Kras_Q61_For: 5′-[…]-3′ (SEQ ID NO: 205); and Kras_Q61_Rev: 5′-[…]-3′ (SEQ ID NO: 206). […] Plates were read on a QX200 droplet reader (Bio-Rad) and analyzed with QuantaSoft™ Analysis Pro software (version 1.0.596) (Bio-Rad) to assess the number of droplets positive for mutant DNA, wild-type DNA, both, or neither. […]

For the next series, the system named is exon 2 of Kras. Description: Maximum depth sequencing (MDS) of Kras exon 2 from tissues of mice after urethane exposure. The protocol: as §1
(§2) Isolation of genomic DNA. MEF cells were resuspended in lysis buffer (100 mM NaCl, 10 mM Tris pH 7.6, 25 mM EDTA pH 8.0, and 0.5% SDS in H2O, supplemented with 20 μg·ml^−1 RNase A (Sigma)). Lung, pancreas, and liver (right lobe) from A/J mice (JAX Stock #000646) were cut into fine pieces and similarly resuspended in lysis buffer. Samples were incubated at 37° C. for 1 hour. 2 μl of 800 U·ml^−1 proteinase K (NEB) was then added to each sample, the samples were vortexed, and then incubated at 55° C. overnight. Genomic DNA was isolated by phenol/chloroform extraction followed by ethanol precipitation using standard procedures and quantified using Qubit fluorometer.
Maximum depth sequencing (MDS). The MDS assay^13 was adapted for mammalian Ras genes as follows. 20-50 μg of genomic DNA was incubated with StuI (NEB) for analysis of the transcribed strand of Kras exon 1, EcoRV (NEB) and EcoRI (NEB) for analysis of the non-transcribed strand of Kras exon 1, XmnI (NEB) for analysis of the non-transcribed strand of Kras exon 2, and PleI (NEB) for analysis of the transcribed strand of Kras exon 2, or HphI (NEB) for the analysis of the non-transcribed strand of Hras exon 2. Reaction conditions were 5 units of the indicated restriction enzyme and per 1 μg DNA per 20 μl reaction (e.g., 20 μg genomic DNA, 5 μl enzyme (20 units/μl), and 40 μl 10×buffer in 400 μl reaction). Digested genomic DNA was column purified using QIAquick PCR Purification Kit following the manufacturer's protocol (Qiagen) and resuspended in ddH2O (35 μl H2O per 10 μg DNA). The barcode and adaptor were added to the target DNA by incubating purified DNA with the appropriate barcode primer (see below) for one cycle of PCR. PCR reactions were comprised of 10 μg DNA, 2.5 μl of 10 μM barcode primer, 4 μl of 2.5 mM dNTP, 10 μl of 5×buffer (NEB), and 0.5 μl Q5® Hot Start High-Fidelity DNA Polymerase (NEB) in a total volume of 50 μl. The number of PCR reactions was scaled according to the amount of DNA. PCR conditions were 98° C. for 1 minute, barcode primer annealing temperate (see below) for 15 seconds, and 72° C. for 1 minute. […] The concentration of purified product was measured with SimpliNano spectrophotometer (GE Healthcare Life Sciences). […]

For the next series, the system named is exon 1 of Kras. The experiment in a line: MDS of Kras exon 1 from lungs of mice after urethane exposure. As to the method: as §1, §2
(§3) Maximum depth sequencing (MDS). The MDS assay^13 was adapted for mammalian Ras genes as follows. […] The concentration of purified product was measured with SimpliNano spectrophotometer (GE Healthcare Life Sciences). […]

A further series has as its system exon 2 of Hras. Description: MDS of Hras exon 2 from lungs of mice after urethane exposure. The protocol: as §1, §2, §3

As for `CCOC(N)=O` [urethane, ethyl carbamate], in the series with Kras Q61L, the “Q61L mutation frequency by droplet digital PCR” value is “frequency similar to that determined by MDS”. Further, the “strand bias of mutagenesis” value in the series with exon 2 of Kras (lung, both strands sequenced in two exons of Kras) is reported as “bias for the non-transcribed strand”. Besides, the “most prominent substitution detected by MDS” value in the series on exon 2 of Kras (lungs, Kras exon 2, all time points, urethane but not PBS) was “A>T transversion within the context of a 5′ C and 3′ any nucleotide”. For the same molecule, in the series on exon 2 of Kras (lungs, non-transcribed strand of exon 2, 1-4 weeks after three daily i.p. injections, vs PBS), the “oncogenic mutation at codon Q61 of Kras detected by MDS” value is “oncogenic L (and to a lesser extent R) mutation at codon Q61 preferentially in the urethane, but not PBS cohort of mice, as early as 1 week after exposure”. Moreover, the “CAN→CTN transversions in liver and pancreas in comparison with the lung” value in the series on exon 2 of Kras (non-transcribed strand of exon 2 of Kras, 1 and 4 weeks after urethane exposure) was “significantly fewer CAN→CTN transversions were recovered in the liver and pancreas”. In addition, the “oncogenic mutations in codon 12 or 13 of Kras” value in the series with exon 1 of Kras (1 week after urethane exposure) is “oncogenic mutations were rarely recovered in either codon 12 or 13”; in the series on exon 1 of Kras (4 weeks after urethane exposure), “some G12 and G13 mutations were detected at a low frequency”. Moreover, the “expansion of oncogenic mutations in Hras over time” value with exon 2 of Hras (4 weeks vs 1 week) is reported as “did not expand appreciably over time”. Also, the “mutations in exon 2 of Hras” value in the series with exon 2 of Hras (non-transcribed strand, 1 and 4 weeks after exposure) was “high prevalence of A>T followed by A>G mutations”.
